These results are taken from patent US6855730B2, “3-methylidenyl-2-indolinone modulators of protein kinase” (Sugen, Inc., priority 1998, dated 2005).

A value given as a limit tells only on which side of the number the result lay.

Chain of EGFR (P00533 25-1210): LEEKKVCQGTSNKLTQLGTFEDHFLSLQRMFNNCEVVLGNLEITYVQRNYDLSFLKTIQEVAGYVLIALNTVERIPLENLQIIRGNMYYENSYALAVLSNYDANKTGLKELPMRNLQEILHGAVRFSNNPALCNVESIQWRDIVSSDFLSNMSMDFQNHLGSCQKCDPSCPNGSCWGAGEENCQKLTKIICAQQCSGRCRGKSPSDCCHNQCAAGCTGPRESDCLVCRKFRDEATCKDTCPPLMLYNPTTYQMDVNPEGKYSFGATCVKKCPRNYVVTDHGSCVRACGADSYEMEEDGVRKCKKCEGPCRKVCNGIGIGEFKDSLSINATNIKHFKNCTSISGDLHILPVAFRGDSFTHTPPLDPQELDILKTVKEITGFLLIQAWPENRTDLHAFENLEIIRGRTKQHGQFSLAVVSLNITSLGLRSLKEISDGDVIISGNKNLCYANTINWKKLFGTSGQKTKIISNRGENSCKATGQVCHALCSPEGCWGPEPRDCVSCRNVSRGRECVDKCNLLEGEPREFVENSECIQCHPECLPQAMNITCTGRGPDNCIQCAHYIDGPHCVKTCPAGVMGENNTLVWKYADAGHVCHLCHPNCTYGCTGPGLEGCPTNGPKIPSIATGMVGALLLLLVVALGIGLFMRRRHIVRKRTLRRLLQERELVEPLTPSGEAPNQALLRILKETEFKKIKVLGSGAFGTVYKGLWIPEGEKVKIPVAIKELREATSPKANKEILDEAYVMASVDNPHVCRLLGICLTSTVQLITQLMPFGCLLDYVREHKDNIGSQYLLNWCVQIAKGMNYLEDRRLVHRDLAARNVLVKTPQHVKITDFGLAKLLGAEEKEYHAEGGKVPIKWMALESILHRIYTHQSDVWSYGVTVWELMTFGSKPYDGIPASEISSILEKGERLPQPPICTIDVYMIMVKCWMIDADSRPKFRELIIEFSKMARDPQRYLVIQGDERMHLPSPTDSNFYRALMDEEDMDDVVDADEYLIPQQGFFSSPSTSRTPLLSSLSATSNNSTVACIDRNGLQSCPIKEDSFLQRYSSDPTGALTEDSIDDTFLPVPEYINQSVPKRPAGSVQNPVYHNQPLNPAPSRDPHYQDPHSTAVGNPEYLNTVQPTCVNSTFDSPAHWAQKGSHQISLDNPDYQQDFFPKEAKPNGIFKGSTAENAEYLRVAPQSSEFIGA

The target of the test is EGFR (Homo sapiens, UniProt P00533). The experiment in a line: EGFR assay (cellular ELISA, NIH 3T3/C7 cells). To be noted: read-out: cell EGF IC50. Also on record: expressed in transfected cells; host or cells: NIH 3T3/C7. The format is cell-based. The protocol:
EGF Receptor kinase activity in cells genetically engineered to express human EGF-R can be measured as described below:
Materials and Reagents. • a. […] 05-101 (UBI) (a monoclonal antibody recognizing an EGFR extracellular domain). • c. Anti-phosphotyosine antibody (anti-Ptyr) (polyclonal). • d. Detection antibody: Goat anti-rabbit IgG horse radish peroxidase conjugate, TAGO, Inc. Burlingame, Calif. • e. TBST buffer:
• Keep solution in dark at 4° C. until used. • h. Stock reagents of:
Pre-coat ELISA Plate • 1. […] Coated plates are good for up to 10 days when stored at 4° C. • 2. On day-of use, remove coating buffer and replace with blocking buffer (5% Carnation Instant NonFat Dry Milk in PBS). Incubate the plate, shaking, at room temperature (about 23° C. to 25° C.) for 30 minutes. Just prior to use, remove blocking buffer and wash plate 4 times with TBST buffer.
Seeding Cells • 1. […] Choose dishes having 80-90% confluence for the experiment. Trypsinize cells and stop reaction by adding 10% CS DMEM medium. Suspend cells in DMEM medium (10% CS DMEM medium) and centrifuge once at 1000 rpm at room temperature for 5 minutes. • 3. Resuspend cells in seeding medium (DMEM, 0.5% bovine serum), and count the cells using trypan blue. Viability above 90% is acceptable. Seed cells in DMEM medium (0.5% bovine serum) at a density of 10,000 cells per well, 100 μl per well, in a 96 well microtiter plate. Incubate seeded cells in 5% CO2 at 37° C. for about 40 hours.
Assay Procedures. • 1. Check seeded cells for contamination using an inverted microscope. Dilute test compounds stock (10 mg/ml in DMSO) 1:10 in DMEM medium, then transfer 5 μl to a test well for a test compounds drug dilution of 1:200 and a final DMSO concentration of 1%. Control wells receive DMSO alone. Incubate in 5% CO2 at 37° C. for one hour. • 2. Prepare EGF ligand: dilute stock EGF in DMEM so that upon transfer of 10 μl dilute EGF (1:12 dilution), 25 nM final concentration is attained. • 3. Prepare fresh 10 ml HNTG* sufficient for 100 μl per well wherein HNTG* comprises: HNTG stock (2.0 ml), milli-Q H2O (7.3 ml), EDTA, 100 mM, pH 7.0 (0.5 ml), Na3VO4 0.5 M (0.1 ml) and Na4(P2O7), 0.2 M (0.1 ml). • 4. Place on ice. • 5. After two hours incubation with drug, add prepared EGF ligand to cells, 10 μl per well, to yield a final concentration of 25 nM. Control wells receive DMEM alone. Incubate, shaking, at room temperature, for 5 minutes. • 6. Remove test compound, EGF, and DMEM. Wash cells twice with PBS. Transfer HNTG* to cells, 100 μl per well. Place on ice for 5 minutes. Meanwhile, remove blocking buffer from other ELISA plate and wash with TBST as described above. • 7. With a pipette tip securely fitted to a micropipettor, scrape cells from plate and homogenize cell material by repeatedly aspirating and dispensing the HNTG* lysis buffer. Transfer lysate to a coated, blocked, and washed ELISA plate. Incubate shaking at room temperature for one hour. • 8. Remove lysate and wash 4 times with TBST. Transfer freshly diluted anti-Ptyr antibody to ELISA plate at 100 μl per well. Incubate shaking at room temperature for 30 minutes in the presence of the anti-Ptyr antiserum (1:3000 dilution in TBST). • 9. Remove the anti-Ptyr antibody and wash 4 times with TBST. Transfer the freshly diluted TAGO 30 anti-rabbit IgG antibody to the ELISA plate at 100 μl per well. Incubate shaking at room temperature for 30 minutes (anti-rabbit IgG antibody: 1:3000 dilution in TBST). • 10. Remove detection antibody and wash 4 times with TBST. Transfer freshly prepared ABTS/H2O2 solution to ELISA plate, 100 μl per well. Incubate at room temperature for 20 minutes. ABTS/H2O2 solution: 1.2 μl 30% H2O2 in 10 ml ABTS stock. • 11. Stop reaction by adding 50 μl 5N H2SO4 (optional), and determine O.D. at 410 nm. • 12. The maximal phosphotyrosine signal is determined by subtracting the value of the negative controls from the positive controls. […]
With `COc1ccc2c(c1)NC(=O)/C2=C/c1ccc(OC)c(-c2ccsc2)c1` [Example 64, 6-Methoxy-3-(4-methoxy-3-thiophen-3-ylbenzylidene)-1,3-dihydroindol-2-one], the IC50 – broadly, the point on the concentration scale where inhibition reaches its midpoint – is greater than 100 µM.
The result for `COc1ccc(/C=C2/C(=O)Nc3ccccc32)cc1-c1ccccc1` [Example 65, 3-(6-Methoxybiphenyl-3-ylmethylene)-1,3-dihydroindol-2-one] reads greater than 100 µM.
The figure for `O=C1Nc2ccccc2/C1=C\c1ccc2c(c1)CCO2` [Example 66, 3-(2,3-Dihydrobenzofuran-5-ylmethylene)-1,3-dihydroindol-2-one] is greater than 100 µM.
`COc1ccc(/C=C2/C(=O)Nc3ccc(Cl)cc32)cc1-c1ccccc1` [Example 67, 5-Chloro-3-(6-methoxybiphenyl-3-ylmethylene)-1,3-dihydroindol-2-one]: the IC50 was greater than 100 µM.
As to `COc1ccc(/C=C2\C(=O)Nc3cccc(C)c32)cc1C1CCCCC1` [Example 68, 3-(3-Cyclohexyl-4-methoxybenzylidene)-4-methyl-1,3-dihydroindol-2-one], the IC50 is greater than 100 µM.
The result for `Cc1cccc2c1/C(=C/c1ccc3c(c1)CCO3)C(=O)N2` [Example 69, 3-(2,3-Dihydrobenzofuran-5-ylmethylene)-4-methyl-1,3-dihydroindol-2-one] reads greater than 100 µM.
The figure for `COc1ccc(/C=C2/C(=O)Nc3ncccc32)cc1C(C)C` [Example 70, 3-(3-Isopropyl-4-methoxybenzylidene)-1,3-dihydropyrrolo[2,3-b]pyridine-2-one] is greater than 100 µM; for `COc1ccc(/C=C2/C(=O)Nc3ncccc32)cc1-c1ccccc1` [Example 71, 3-(6-Methoxybiphenyl-3-ylmethylene)-1,3-dihydropyrrolo[2,3-b]pyridin-2-one] it is greater than 100 µM; for `COc1ccc(/C=C2/C(=O)Nc3ncccc32)cc1C1CCCCC1` [Example 72, 3-(3-Cyclohexyl-4-methoxybenzylidene)-1,3-dihydropyrrolo[2,3-b]pyridin-2-one] it is greater than 100 µM.
`O=C1Nc2ncccc2/C1=C\c1ccc2c(c1)CCO2` [Example 73, 3-(2,3-Dihydrobenzofuran-5-ylmethylene)-1,3-dihydropyrrolo[2,3-b]pyridin-2-one]: the IC50 is greater than 50 µM.
As for `COc1c(C(C)C)cc(/C=C2/C(=O)Nc3ncccc32)cc1C(C)C` [Example 74, 3-(3,5-Diisopropyl-4-methoxybenzylidene)-1,3-dihydropyrrolo[2,3-b]pyridin-2-one], the IC50 is greater than 100 µM.
Turning to `Cc1cc(CCC(=O)O)c(/C=C2\C(=O)Nc3cc(-c4ccc(F)cc4)ccc32)[nH]1` [Example 107, 3-{2-[6-(4-Fluorophenyl)-2-oxo-1,2-dihydroindol-3-ylidenemethyl]-5-methyl-1H-pyrrol-3-yl}propionic acid], the IC50 is greater than 100 µM.
The result for `CCOC(=O)c1c(C)[nH]c(/C=C2\C(=O)Nc3cc(-c4ccc(F)cc4)ccc32)c1CCC(=O)O` [Example 108, 4-(2-Carboxyethyl)-5-[6-(4-fluorophenyl)-2-oxo-1,2-dihydro-indol-3-ylidenemethyl]-2-methyl-1H-pyrrole-3-carboxylic acid ethyl ester] reads greater than 100 µM; that for `COc1ccccc1-c1ccc2c(c1)NC(=O)/C2=C\c1[nH]c(C)cc1CCC(=O)O` [Example 109, 3-{2-[6-(2-Methoxyphenyl)-2-oxo-1,2-dihydroindol-3-ylidenemethyl]-5-methyl-1H-pyrrol-3-yl}-propionic acid], greater than 100 µM.
On to `CCOC(=O)c1c(C)[nH]c(/C=C2\C(=O)Nc3cc(-c4ccccc4OC)ccc32)c1CCC(=O)O` [Example 110, 4-(2-Carboxyethyl)-5-[6-(2-methoxyphenyl)-2-oxo-1,2-dihydro-indol-3-ylidenemethyl]-2-methyl-1H-pyrrol-3-yl-carboxylic acid ethyl ester], for which the IC50 is greater than 100 µM.
The result for `Cc1cc(CCC(=O)O)c(/C=C2\C(=O)Nc3ccc(Cl)cc32)[nH]1` [Example 111, 3-[2-(5-Chloro-2-oxo-1,2-dihydroindol-3-ylidenemethyl)-5-methyl-1H-pyrrol-3-yl]propionic acid] reads greater than 100 µM; that for `O=C1Nc2ccc(Br)cc2/C1=C/c1cc2ccccc2[nH]1` [Example 165, 5-Bromo-3-(1H-indol-2-ylmethylene)-1,3-dihydro-indol-2-one], greater than 100 µM.
In the case of `Cc1cccc2c1/C(=C/c1cc3ccccc3[nH]1)C(=O)N2` [Example 166, 3-(1H-indol-2-ylmethylene)-4-methyl-1,3-dihydro-indol-2-one], the IC50 was greater than 100 µM.
